Assay results from ChEMBL document CHEMBL1201862, “PubChem BioAssay data set” (2004).
The source made the active and inactive calls.

Tests used:
[1] = HEK-293T cell viability reduction – luminescence, B-cell screen hits, cytotoxicity control for BCR NF-kB inhibitor project, dose response (AID 489021); type: functional, cell-based;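 also: HEK-293T cells carrying an NF-kB luciferase reporter; cells exposed to compound for about 14 hours before viability readout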
[2] = molecular target: Induced myeloid leukemia cell differentiation protein Mcl-1 (Homo sapiens, UniProt Q07820); type: functional
Chain of Induced myeloid leukemia cell differentiation protein Mcl-1 (Q07820 whole entry): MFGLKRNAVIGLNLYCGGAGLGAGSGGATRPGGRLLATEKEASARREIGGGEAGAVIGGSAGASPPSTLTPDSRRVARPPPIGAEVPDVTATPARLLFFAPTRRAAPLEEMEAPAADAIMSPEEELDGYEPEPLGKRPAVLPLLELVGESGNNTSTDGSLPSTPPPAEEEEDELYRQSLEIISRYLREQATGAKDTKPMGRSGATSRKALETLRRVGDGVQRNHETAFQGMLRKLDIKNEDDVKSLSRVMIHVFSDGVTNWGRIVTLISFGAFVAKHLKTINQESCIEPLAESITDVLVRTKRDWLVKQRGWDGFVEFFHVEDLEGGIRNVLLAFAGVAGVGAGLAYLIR

Vero = assay: cells; type: functional; settings: Chlorocebus sabaeus
[3] = Luminescence Cell-Based Dose Retest to Confirm Inhibitors of Cancer Stem Cells. [Related pubchem assays (depositor defined):AID2717, AID2721]; type: functional, Homo sapiens; settings: Homo sapiens
[4] = molecular target: T1, Ubiquitin-conjugating enzyme E2 N (Homo sapiens, UniProt P61088); type: functional;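 also: Dose-response confirmation in a TR-FRET assay detecting UBC13-driven polyubiquitin chain formation, inhibition measured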
T1 sequence (P61088 whole entry): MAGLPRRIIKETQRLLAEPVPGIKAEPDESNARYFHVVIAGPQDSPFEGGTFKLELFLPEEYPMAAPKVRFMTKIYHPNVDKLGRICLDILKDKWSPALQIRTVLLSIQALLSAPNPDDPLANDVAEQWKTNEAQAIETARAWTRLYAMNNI

[5] = molecular target: Voltage-dependent T-type calcium channel subunit alpha-1H (Homo sapiens, UniProt O95180); type: functional;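 also: channel activity triggered by adding a high calcium stimulation buffer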
Chain of Voltage-dependent T-type calcium channel subunit alpha-1H (O95180 whole entry): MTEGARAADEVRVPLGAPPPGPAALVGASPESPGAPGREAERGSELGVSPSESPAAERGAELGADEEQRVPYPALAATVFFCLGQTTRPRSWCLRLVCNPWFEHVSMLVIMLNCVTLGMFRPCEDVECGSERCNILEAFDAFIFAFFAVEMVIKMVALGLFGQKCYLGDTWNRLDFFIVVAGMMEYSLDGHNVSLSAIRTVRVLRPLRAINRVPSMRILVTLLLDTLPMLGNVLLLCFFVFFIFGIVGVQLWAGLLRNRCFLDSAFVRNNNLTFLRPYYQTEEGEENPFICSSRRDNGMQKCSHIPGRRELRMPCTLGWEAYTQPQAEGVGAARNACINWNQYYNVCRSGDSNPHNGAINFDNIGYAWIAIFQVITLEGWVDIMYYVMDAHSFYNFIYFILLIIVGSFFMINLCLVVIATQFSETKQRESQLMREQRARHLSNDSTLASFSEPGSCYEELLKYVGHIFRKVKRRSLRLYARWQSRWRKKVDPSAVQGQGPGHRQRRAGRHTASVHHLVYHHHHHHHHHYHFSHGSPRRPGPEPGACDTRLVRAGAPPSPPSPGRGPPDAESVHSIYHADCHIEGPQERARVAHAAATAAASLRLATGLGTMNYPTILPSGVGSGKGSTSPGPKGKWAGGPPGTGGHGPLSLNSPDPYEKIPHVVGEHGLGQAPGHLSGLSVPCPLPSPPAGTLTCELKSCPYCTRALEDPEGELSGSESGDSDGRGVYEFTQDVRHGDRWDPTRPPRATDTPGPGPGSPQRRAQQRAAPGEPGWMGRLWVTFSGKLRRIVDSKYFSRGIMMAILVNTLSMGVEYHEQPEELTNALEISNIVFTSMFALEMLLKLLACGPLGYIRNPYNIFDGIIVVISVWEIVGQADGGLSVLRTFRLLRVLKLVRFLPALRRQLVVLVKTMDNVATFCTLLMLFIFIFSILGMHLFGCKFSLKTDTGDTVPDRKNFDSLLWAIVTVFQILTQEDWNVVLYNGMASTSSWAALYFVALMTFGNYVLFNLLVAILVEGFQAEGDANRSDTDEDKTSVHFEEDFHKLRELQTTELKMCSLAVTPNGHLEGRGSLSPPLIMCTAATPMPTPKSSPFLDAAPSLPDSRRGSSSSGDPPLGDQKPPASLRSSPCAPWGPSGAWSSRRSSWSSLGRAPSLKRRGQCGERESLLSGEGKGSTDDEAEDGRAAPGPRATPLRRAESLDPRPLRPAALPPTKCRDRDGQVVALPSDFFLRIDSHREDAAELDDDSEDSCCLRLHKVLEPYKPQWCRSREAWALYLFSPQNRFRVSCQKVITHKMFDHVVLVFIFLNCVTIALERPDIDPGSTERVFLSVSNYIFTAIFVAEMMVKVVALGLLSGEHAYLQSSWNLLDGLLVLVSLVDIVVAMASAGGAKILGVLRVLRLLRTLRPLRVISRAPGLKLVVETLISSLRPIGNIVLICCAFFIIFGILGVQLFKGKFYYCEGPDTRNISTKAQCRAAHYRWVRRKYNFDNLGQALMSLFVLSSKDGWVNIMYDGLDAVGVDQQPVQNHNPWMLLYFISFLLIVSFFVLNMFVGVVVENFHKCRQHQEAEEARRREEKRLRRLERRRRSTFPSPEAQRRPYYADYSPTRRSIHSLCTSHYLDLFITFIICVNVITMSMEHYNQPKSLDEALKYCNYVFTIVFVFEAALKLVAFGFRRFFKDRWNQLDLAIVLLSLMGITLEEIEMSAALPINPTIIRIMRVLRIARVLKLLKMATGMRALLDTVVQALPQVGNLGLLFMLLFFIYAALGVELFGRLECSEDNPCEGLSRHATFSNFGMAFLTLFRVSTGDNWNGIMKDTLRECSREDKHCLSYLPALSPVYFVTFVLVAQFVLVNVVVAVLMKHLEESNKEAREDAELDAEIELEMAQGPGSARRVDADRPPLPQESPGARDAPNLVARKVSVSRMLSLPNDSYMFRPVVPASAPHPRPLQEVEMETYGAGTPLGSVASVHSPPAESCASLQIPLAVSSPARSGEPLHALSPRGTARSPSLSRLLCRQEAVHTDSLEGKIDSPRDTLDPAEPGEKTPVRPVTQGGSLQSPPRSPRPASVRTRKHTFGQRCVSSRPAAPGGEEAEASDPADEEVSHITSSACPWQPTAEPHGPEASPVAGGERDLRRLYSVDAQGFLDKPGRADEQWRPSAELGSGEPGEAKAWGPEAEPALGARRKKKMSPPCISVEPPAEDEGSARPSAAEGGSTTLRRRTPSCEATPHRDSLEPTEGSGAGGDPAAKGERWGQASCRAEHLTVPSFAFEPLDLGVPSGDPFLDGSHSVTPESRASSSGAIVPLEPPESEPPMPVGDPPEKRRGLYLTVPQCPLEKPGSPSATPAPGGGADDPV

[6] = molecular target: T2, DNA repair protein RAD52 homolog (Homo sapiens, UniProt P43351); type: functional, biochemical
T2 sequence (P43351 whole entry): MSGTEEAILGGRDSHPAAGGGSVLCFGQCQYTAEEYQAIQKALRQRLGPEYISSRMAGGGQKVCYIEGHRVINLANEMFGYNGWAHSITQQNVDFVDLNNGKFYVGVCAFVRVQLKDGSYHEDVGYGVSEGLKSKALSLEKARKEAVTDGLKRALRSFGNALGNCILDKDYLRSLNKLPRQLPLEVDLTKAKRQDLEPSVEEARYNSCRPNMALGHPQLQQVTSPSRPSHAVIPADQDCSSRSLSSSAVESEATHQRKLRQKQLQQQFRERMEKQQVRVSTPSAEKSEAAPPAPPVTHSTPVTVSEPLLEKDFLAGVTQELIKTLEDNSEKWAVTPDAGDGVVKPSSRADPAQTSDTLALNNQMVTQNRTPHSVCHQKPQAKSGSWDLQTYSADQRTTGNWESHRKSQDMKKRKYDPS

[7] = blockers of HIV-1 envelope-mediated cell-cell fusion – cherry-pick, dose response (AID 652057); type: functional, cell-based
HEK293 [8] = assay: cells; type: functional, cell-based; settings: Homo sapiens
HEK293 [9] = assay: NOD2 signaling inhibitors in MDP-stimulated cells, cell-based, uHTS, luminescence (AID 2001); type: functional; settings: Homo sapiens
[10] = NIH-3T3 fibroblast cytotoxicity, dose response, cytotoxicity control, cell-based, fluorescence, Alamar Blue, secondary assay (AID 2327); type: functional;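 also: NIH-3T3 mouse fibroblasts cultured with fluconazole at 8 µg/mL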
[11] = fluconazole-exposed Candida albicans growth modulators – fluorescence, retest, confirmation (AID 2467); type: functional, cell-based
HEK293 [12] = assay: cells; type: functional, cell-based; settings: Homo sapiens; remark: listed apart in the source
HEK293 [13] = assay: inhibition of NOD1-driven NF-kB reporter – cell-based, luminescence, uHTS, primary screen (AID 1578); type: functional; settings: Homo sapiens
[14] = microbe, parasite or virus in culture; type: functional; settings: Mycobacterium tuberculosis
INS1 = assay: INS-1E survival protection against cytokine death – cell-based, luminescence, retest, dose response (AID 449756); type: functional; settings: Rattus norvegicus;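 also: cell death triggered by IL-1 beta plus TNF-alpha plus IFN-gamma mixture; protective hits raise ATP signal compared with cytokine alone wells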
[15] = Trypanosoma cruzi growth suppression in host cells – NIH3T3 host cells, beta-gal luminescence, confirmation (AID 2044); type: functional, cell-based;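 also: intracellular parasites grown in NIH/3T3 mouse fibroblasts as host cells; luminescent beta-galactosidase reporter signal from transgenic T. cruzi replicating inside host cells; inhibitors lower the luminescence signal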
[16] = NIH3T3 cell viability loss – ATP luminescence, mouse fibroblasts, counter-screen, dose response (AID 2010); type: functional, cell-based; settings: NIH3T3;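 also: cells exposed to compound for about 90 hours before reading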

Structure (SMILES): CC1Cc2ccccc2N1S(=O)(=O)c1cnc(Cl)c(Br)c1 (centres undefined)
- IC50 [1]: 69.3 µM (inactive)

Structure (SMILES): COc1ccc(C(=O)Nc2ccccc2C(=O)NCc2ccco2)cc1OC
- IC50 [1]: > 80 µM (inactive)

Structure (SMILES): O=[N+]([O-])c1ccc2c(c1)=[N+]([O-])C1(CCCCC1)[N+]=2[O-]
- IC50 [2]: 4.85 µM (active)

Structure (SMILES): CSc1ccc(C(=O)/C=C/c2ccc(N)cc2)cc1
- CC50 (Vero): 18.7 µM (active)

Structure (SMILES): CC(C)C[C@H](NC(=O)c1[nH]cnc1C(=O)NC(c1ccccc1)c1ccccc1)C(=O)OC(C)(C)C
- AC50 [3]: 3.44 µM (active)
- CC50 (Vero): 19.3 µM (active)

Structure (SMILES): COc1ccccc1/C=C1\SC(=S)N(CCC(=O)Nc2nnc(C)s2)C1=O
- IC50 [1]: > 80 µM (inactive)

Structure (SMILES): COc1ccccc1NC(=O)CNC(=O)CC12CC3CC(CC(C3)C1)C2
- IC50 [4]: > 20 µM (inactive)

Structure (SMILES): COC(=O)/C=C\C(C#N)(C#N)N=Cc1ccc(OC)cc1
- CC50 (Vero): > 25 µM (active)

Structure (SMILES): c1ccc(C[C@H]2CN=C(Nc3ccccc3)N2CCCC2CCCCC2)cc1
- IC50 [4]: > 20 µM (inactive)

Structure (SMILES): O=C(Nc1nc2ccccc2s1)C1CC(=O)N(c2ccccc2)C1 (centres undefined)
- EC50 [5]: 8.11 µM (active)

Structure (SMILES): CN(C)CCCOc1ccc(-c2cc3nc(NCc4cccnc4)n(C)c(=O)c3s2)cn1
- AC50 [6]: 11.2 µM (active)

Structure (SMILES): CCC(=O)N(C)C[C@H]1Oc2cc(/C=C/c3ccccc3)ccc2S(=O)(=O)N([C@@H](C)CO)C[C@H]1C
- AC50 [7]: 20.7 µM (active)

Structure (SMILES): CC(C)(C)NC(=S)N/N=C/c1cc(Br)c(O)c(Br)c1
- IC50 (HEK293 [8]): > 20 µM (inactive)
- IC50 (HEK293 [9]): 16.9 µM (inactive)
- EC50 [10]: 32.2 µM (active)
- EC50 [11]: 2.86 µM (active)
- IC50 (HEK293 [12]): > 20 µM (inactive)
- EC50 (HEK293 [13]): 5.75 µM (active)

Structure (SMILES): C/C(=N\NC(=O)c1nnn(-c2nonc2N)c1CN(C)c1ccccc1)c1ccccn1
- CC50 [14]: 2.43 µM (active)

Structure (SMILES): Cc1ccc(-c2cn3c([n+]2-c2ccccc2)SCC3)cc1
- AC50 (INS1): 3.11 µM (active)
- EC50 [15]: 282 nM (active)
- IC50 [1]: > 80 µM (inactive)
- EC50 [16]: > 60 µM (not active)
